From US20230203099A1, “CYCLOPHILIN INHIBITORS AND USES THEREOF” (priority 2020, published 2023)
pEC50, pIC50, pKi: −log10 of the molar value. Read-outs that look alike come from different tables or passages of the source.

How the values were obtained:
Human CypD = Human CypD (Homo sapiens, UniProt P30405); experiment: Cyclophilin peptidyl-prolyl isomerase functional assay (PPIase), cyclophilin D; format: biochemical; details: for Ki: human recombinant enzyme, 10° C., read-out: Inhibition (Ki, nM) Human CypD
Method: (§1) Cyclophilin A and D peptidyl-prolyl isomerase functional assays using human recombinant enzymes (PPlase assay), as well as in a calcineurin inhibition assay with and without cyclophilin A are conducted.
(§2) The compounds are supplied as a dry powder or oils and made up as a 10 mM stock solution in 100% DMSO. Subsequent dilutions were made in 100% DMSO for use in all assays.
(§3) Cyclophilin Peptidyl-Prolyl Isomerase Functional Assay
(§4) Measurements are performed using an Agilent 8453 spectrophotometer. Assay buffer was cooled to 10° C. (with stirring) in a precision glass cuvette and inhibitor is added from a DMSO stock solution to afford a final concentration of <1% DMSO. A blank spectrum is obtained and then enzyme and substrate are added and the change in absorbance measured over 5 min. A first order rate is fitted to the absorbance data to obtain a rate constant (first 10 to 15 s were eliminated due to mixing). The catalytic rate is calculated from the enzymatic rate minus the background rate. The enzymatic rate constant, determined in duplicate at each inhibitor concentration, is plotted against inhibitor concentration and a non-linear fit by SigmaPlot generated a Ki.

permeabilized HepG2 = experiment: Calcium retention capacity (CRC) assay in permeabilized HepG2; format: cell-based; details: Homo sapiens; for pEC50: permeabilized HepG2, Calcium Green 5N, read-out: Calcium Retention Capacity EC50
Method: The compounds are also tested in a calcium retention capacity (CRC) assay in permeabilized HepG2.
as §2
Calcium Retention Capacity (CRC) Assay in Permeabilized HepG2
HepG2 cells are permeabilised with 100 μM digitonin for 10 min in ice cold buffer containing 1 mM EGTA. Following two wash steps to remove the digitonin, the cells are plated into 96 well black and clear plates at 1e^6 cell per well in 180 μL assay buffer containing 0.5 μM Calcium Green 5N. Compounds dilutions are made in DMSO to 1000-fold the final concentration, diluted 1:100 in assay buffer and added to the assay as 20 μL per well. The assay buffer contained 5 mM glutamate and 2.5 mM malate. The cell plate is immediately run on the FLIPR Tetra™ which added 5 μL of 200 μM (5 μM) calcium chloride every 5 minutes whilst reading the plate every 3 seconds. The area under the curve at each concentration of compound is calculated. EC50 values are calculated.
The assay as described above measures the loss of inhibition based on the release of calcium, which is determined by increased intensity of fluorescence reporting of the calcium-binding dye used in the assay.

[1] = biological target: recombinant Calcineurin (CaN) (Homo sapiens, UniProt P63098+Q08209); experiment: Calcineurin phosphatase inhibition assay without cyclophilin A; format: biochemical; details: for IC50: without cyclophilin A, RII phosphopeptide substrate, read-out: Calcineurin Inhibition (IC50, nM) −CypA
Method: as §1, §2
(§5) Calcineurin Phosphatase Inhibition Assay With and Without Cyclophilin A
(§6) This colorimetric 96 well assay is designed for inhibitor screening of recombinant Calcineurin (CaN). […] In a 96-well plate, two dilution series are prepared, one with the cyclophilin A enzyme (7-point) and another without (4-point). An assay buffer/calcineurin/calmodulin master mix is added followed by the phosphopeptide substrate (RII). After incubation at 30° C. the reaction is stopped by the addition of malachite green/molybdate reagent. The coloured complex formed with liberated phosphate is quantified by reading the absorbance at 620 nm. The blank corrected data was plotted against inhibitor concentration to determine an IC50 value.

Human CypA = Human CypA (Homo sapiens, UniProt P62937); experiment: Cyclophilin peptidyl-prolyl isomerase functional assay (PPIase), cyclophilin A; format: biochemical; details: human recombinant enzyme, 10° C.; read-out: Inhibition (Ki, nM) Human CypA
Method: as §1, §2, §3, §4

[2] = biological target: recombinant Calcineurin (CaN) + CypA (Homo sapiens, UniProt P62937+P63098+Q08209); experiment: Calcineurin phosphatase inhibition assay with cyclophilin A; format: biochemical; details: RII phosphopeptide substrate
Sequence of recombinant Calcineurin (CaN) + CypA (P62937 whole entry, other chains not shown): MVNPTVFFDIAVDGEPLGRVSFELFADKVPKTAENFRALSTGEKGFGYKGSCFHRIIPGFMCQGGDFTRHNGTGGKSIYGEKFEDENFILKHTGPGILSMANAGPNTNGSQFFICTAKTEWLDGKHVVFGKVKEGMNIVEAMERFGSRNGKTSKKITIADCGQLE
Sequence of recombinant Calcineurin (CaN) + CypA (P63098 whole entry, other chains not shown): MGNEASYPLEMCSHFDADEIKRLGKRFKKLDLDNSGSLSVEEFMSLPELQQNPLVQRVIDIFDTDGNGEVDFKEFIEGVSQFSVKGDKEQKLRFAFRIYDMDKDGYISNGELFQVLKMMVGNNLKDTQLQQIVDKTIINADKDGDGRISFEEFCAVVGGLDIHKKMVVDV
Method: as §1, §2, §5, §6

Sequence of Human CypD (P30405 30-207): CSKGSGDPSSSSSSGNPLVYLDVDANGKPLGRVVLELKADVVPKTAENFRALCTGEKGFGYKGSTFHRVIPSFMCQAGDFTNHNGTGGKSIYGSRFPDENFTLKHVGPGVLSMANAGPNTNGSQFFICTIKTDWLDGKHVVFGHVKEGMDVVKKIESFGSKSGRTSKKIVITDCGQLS
Sequence of recombinant Calcineurin (CaN) (P63098 whole entry, other chains not shown): as the sequence (P63098 whole entry, other chains not shown) above
Sequence of Human CypA (P62937 whole entry): as the sequence (P62937 whole entry, other chains not shown) above

Work on CC[C@@H]1NC(=O)[C@H]([C@H](O)[C@H](C)C/C=C/c2ccc(C)cc2)N(C)C(=O)[C@H](C(C)C)N(C)C(=O)[C@H](CC(C)C)N(C)C(=O)[C@H](CC(C)C)N(C)C(=O)[C@@H](C)NC(=O)[C@H](C)NC(=O)[C@H](CC(C)C)N(C)C(=O)[C@H](C(C)C)NC(=O)[C@H](CC(C)C)N(C)C(=O)C(OCCN(C)C)N(C)C1=O (some centres unmarked) [Compound 2] yielded a pKi (Human CypD) of 7.96, an EC50 (permeabilized HepG2; HepG2, read-out: Calcium Retention Capacity EC50 (nM)) of 512 nM and a pIC50 [1] of 5.40.
CC[C@@H]1NC(=O)[C@H]([C@H](O)[C@H](C)C/C=C/c2ccc(C(F)(F)F)cc2)N(C)C(=O)[C@H](C(C)C)N(C)C(=O)[C@H](CC(C)C)N(C)C(=O)[C@H](CC(C)C)N(C)C(=O)[C@@H](C)NC(=O)[C@H](C)NC(=O)[C@H](CC(C)C)N(C)C(=O)[C@H](C(C)C)NC(=O)[C@H](CC(C)C)N(C)C(=O)C(OCCN(C)C)N(C)C1=O (some centres unmarked) [Compound 3] showed a Ki (Human CypD) of 9.4 nM, a pEC50 (permeabilized HepG2) of 5.86 and an IC50 [1] of over 10000 nM.
With CC[C@@H]1NC(=O)[C@H]([C@H](O)[C@H](C)C/C=C/c2cccs2)N(C)C(=O)[C@H](C(C)C)N(C)C(=O)[C@H](CC(C)C)N(C)C(=O)[C@H](CC(C)C)N(C)C(=O)[C@@H](C)NC(=O)[C@H](C)NC(=O)[C@H](CC(C)C)N(C)C(=O)[C@H](C(C)C)NC(=O)[C@H](CC(C)C)N(C)C(=O)C(OCCN(C)C)N(C)C1=O (some centres unmarked) [Compound 4] the Ki (Human CypD) was 11 nM, the pEC50 (permeabilized HepG2) was 6.06 and the IC50 [1] was 1160 nM.
With CC[C@@H]1NC(=O)[C@H]([C@H](O)[C@H](C)C/C=C/c2ccc(OC)cc2)N(C)C(=O)[C@H](C(C)C)N(C)C(=O)[C@H](CC(C)C)N(C)C(=O)[C@H](CC(C)C)N(C)C(=O)[C@@H](C)NC(=O)[C@H](C)NC(=O)[C@H](CC(C)C)N(C)C(=O)[C@H](C(C)C)NC(=O)[C@H](CC(C)C)N(C)C(=O)C(OCCN(C)C)N(C)C1=O (some centres unmarked) [Compound 5] the Ki (Human CypD) was 8.4 nM, the pEC50 (permeabilized HepG2) was 6.21 and the IC50 [1] was 2660 nM. The Ki (Human CypA) was 5.5 nM and the IC50 [2] was 2430 nM.
In the case of CC[C@@H]1NC(=O)[C@H]([C@H](O)[C@H](C)C/C=C/c2ccc3ccccc3c2)N(C)C(=O)[C@H](C(C)C)N(C)C(=O)[C@H](CC(C)C)N(C)C(=O)[C@H](CC(C)C)N(C)C(=O)[C@@H](C)NC(=O)[C@H](C)NC(=O)[C@H](CC(C)C)N(C)C(=O)[C@H](C(C)C)NC(=O)[C@H](CC(C)C)N(C)C(=O)C(OCCN(C)C)N(C)C1=O (some centres unmarked) [Compound 6], the Ki (Human CypD) was 6.5 nM, the pEC50 (permeabilized HepG2) was 6.02 and the IC50 [1] was over 10000 nM.
